Values of other authors, collected in US11304902B2, “Pharmaceutical compositions, preparation and uses thereof” (CURADIGM SAS, priority 2014, dated 2022).

System: CYP1A
Settings: human CYP enzyme

role towards CYP1A (substrate / inhibitor / inducer): Inhibitor
Compound: COc1ccc(-c2cc(=O)c3c(O)cc(O)cc3o2)cc1 [Acacetin, acacetin]
